The source of these data is patent publication US20230117034A1, “PYRAZOLOTRIAZINES” (Bayer Aktiengesellschaft, priority 2019, published 2023).

Bounds are passed on as bounds.

Test [1] relates to CAL-120, human breast adenocarcinoma cells. The test is described as follows: Proliferation assay CAL-120 (crystal violet, 4 days). The class given is cell-based. Particulars: Homo sapiens, CAL-120, 96 h, CAL-120 cells, median, read-out: Prolif-CAL-120, IC50-[mol/l] (median). In short, it runs like this:
(§1)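 IC50 from a 4-parameter fit of crystal violet absorbance (595 nm), scaled between the day-of-dosing plate (0%) and vehicle cells (100%). MDA-MB-231 or CAL-120 cells were treated for 4 days with 0.01–10 micromol/L compound in 0.1% DMSO after 24 h attachment.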

In the next test the target is CDK12/CycK (Homo sapiens, UniProt Q9NYV4). The test is described as follows: CDK12/CycK high ATP kinase assay (TR-FRET, 2 mM ATP). Format: biochemical. Particulars: 2 mM ATP (high ATP); median; read-out: CDK12/CyclinK, 2 mM ATP (high ATP), IC50-[mol/l] (median). The method, boiled down: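 Read-out is TR-FRET (Eu-anti-rabbit IgG, anti-phospho-c-Myc Ser62 antibody, streptavidin-XL665) after EDTA stop. Reaction ran 60 min at 22 °C using 1 µM biotin-peptide and high ATP (2 mM) with roughly 0.75 nM recombinant CDK12/CycK, after 15 min compound pre-binding; normalised emission ratios yield IC50.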
In general terms: In TR-FRET formats the signal depends on donor and acceptor labels being close together.

In test [2] the test system is MDA-MB-231, human breast cancer cells. Nature of the test: Proliferation assay MDA-MB-231 (crystal violet, 4 days). Format: cell-based. Particulars: Homo sapiens, MDA-MB-231, 96 h, MDA-MB-231 cells, median, read-out: Prolif-MDA MB-231, IC50-[mol/l] (median). The method, boiled down:
as §1

Chain of CDK12/CycK (Q9NYV4 with tags, fused parts or gaps): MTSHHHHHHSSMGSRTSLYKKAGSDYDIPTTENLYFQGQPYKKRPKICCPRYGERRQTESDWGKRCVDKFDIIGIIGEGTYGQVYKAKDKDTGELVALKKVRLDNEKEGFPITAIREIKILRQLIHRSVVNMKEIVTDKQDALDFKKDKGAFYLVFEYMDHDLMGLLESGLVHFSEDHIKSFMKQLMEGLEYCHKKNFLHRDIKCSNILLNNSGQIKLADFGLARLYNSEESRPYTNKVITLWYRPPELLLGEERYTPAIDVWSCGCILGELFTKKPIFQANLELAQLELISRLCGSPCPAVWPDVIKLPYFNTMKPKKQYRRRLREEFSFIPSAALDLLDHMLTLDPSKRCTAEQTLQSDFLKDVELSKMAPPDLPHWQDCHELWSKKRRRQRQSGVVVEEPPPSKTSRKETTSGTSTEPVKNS
Chain of CDK12/CycK (O75909 1-300 partner limits assumed): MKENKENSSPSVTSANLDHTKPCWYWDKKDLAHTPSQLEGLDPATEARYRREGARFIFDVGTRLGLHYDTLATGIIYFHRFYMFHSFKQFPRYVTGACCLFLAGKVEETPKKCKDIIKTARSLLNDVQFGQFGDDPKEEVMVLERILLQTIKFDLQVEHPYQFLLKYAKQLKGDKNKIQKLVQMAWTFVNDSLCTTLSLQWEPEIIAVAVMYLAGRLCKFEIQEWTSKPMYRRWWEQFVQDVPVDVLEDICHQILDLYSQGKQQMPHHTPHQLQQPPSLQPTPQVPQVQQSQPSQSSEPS

As for `Brc1cnn2c(NCc3nnc(-c4ccccn4)[nH]3)nc(N3CCOCC3)nc12` [Example 54, 8-bromo-2-(morpholin-4-yl)-N-{[5-(pyridin-2-yl)-4H-1,2,4-triazol-3-yl]methyl}pyrazolo[1,5-a][1,3,5]triazin-4-amine], the IC50 in test [1] is 53.8 nM; at CDK12/CycK, 5650 nM.
In the case of `N#Cc1cccc(-c2nnc(CNc3nc(N4CCOCC4)nc4c(Br)cnn34)[nH]2)c1` [Example 55, 3-[5-({[8-bromo-2-(morpholin-4-yl)pyrazolo[1,5-a][1,3,5]triazin-4-yl]amino}methyl)-4H-1,2,4-triazol-3-yl]benzonitrile], the figures for the IC50 (in test [1]; at CDK12/CycK) were 6.28 nM and 771 nM, respectively.
As to `OC[C@H]1CCCCN1c1nc(NCc2nc3ccccc3[nH]2)n2ncc(Br)c2n1` [Example 60, [(2R)-1-(4-{[(1H-benzimidazol-2-yl)methyl]amino}-8-bromopyrazolo[1,5-a][1,3,5]triazin-2-yl)piperidin-2-yl]methanol], the IC50 in test [1] amounted to 25.7 nM; on CDK12/CycK, 1860 nM.
Turning to `Brc1cnn2c(NCc3nnc(-c4cccnc4)[nH]3)nc(N3CCOCC3)nc12` [Example 53, 8-bromo-2-(morpholin-4-yl)-N-{[5-(pyridin-3-yl)-4H-1,2,4-triazol-3-yl]methyl}pyrazolo[1,5-a][1,3,5]triazin-4-amine], the IC50 in test [1] was 106 nM; at CDK12/CycK it was 2030 nM.
Take `CC(C)c1cnn2c(NCc3nnc(-c4ccccc4)[nH]3)nc(N(C)CC(C)(C)O)nc12` [Example 39, 2-methyl-1-{methyl[4-{[(5-phenyl-4H-1,2,4-triazol-3-yl)methyl]amino}-8-(propan-2-yl)pyrazolo[1,5-a][1,3,5]triazin-2-yl]amino}propan-2-ol]: at CDK12/CycK, the IC50 amounted to 4670 nM.
Regarding `Brc1cnn2c(NCc3nc4ccccc4[nH]3)nc(N3CC4(COC4)C3)nc12` [Example 48, N-[(1H-benzimidazol-2-yl)methyl]-8-bromo-2-(2-oxa-6-azaspiro[3.3]heptan-6-yl)pyrazolo[1,5-a][1,3,5]triazin-4-amine], the IC50 is 120 nM in test [1] and more than 5710 nM on CDK12/CycK.
Take `Fc1ccc(-c2nnc(CNc3nc(N4CCOCC4)nc4c(Br)cnn34)[nH]2)c(F)c1` [Example 41, 8-bromo-N-{[5-(2,4-difluorophenyl)-4H-1,2,4-triazol-3-yl]methyl}-2-(morpholin-4-yl)pyrazolo[1,5-a][1,3,5]triazin-4-amine]: the IC50 in test [1] was 11800 nM; on CDK12/CycK, more than 5710 nM.
In the same order, the values of `CC1(C)CN(c2nc(NCc3nc4ccccc4[nH]3)n3ncc(Br)c3n2)CCO1` [Example 58, N-[(1H-benzimidazol-2-yl)methyl]-8-bromo-2-(2,2-dimethylmorpholin-4-yl)pyrazolo[1,5-a][1,3,5]triazin-4-amine] are 56.3 nM and 6440 nM.
For the compound `CC(C)c1cnn2c(NCc3ncc(-c4ccccc4)[nH]3)nc(N3CCCCC3)nc12` [Example 36, N-[(5-phenyl-1H-imidazol-2-yl)methyl]-2-(piperidin-1-yl)-8-(propan-2-yl)pyrazolo[1,5-a][1,3,5]triazin-4-amine], the IC50 on CDK12/CycK was more than 20000 nM.
As to `Fc1cccc(-c2nnc(CNc3nc(N4CCOCC4)nc4c(Br)cnn34)[nH]2)c1` [Example 44, 8-bromo-N-{[5-(3-fluorophenyl)-4H-1,2,4-triazol-3-yl]methyl}-2-(morpholin-4-yl)pyrazolo[1,5-a][1,3,5]triazin-4-amine], the IC50 in test [1] is 1.46 nM; on CDK12/CycK, 1340 nM.
On to `Brc1cnn2c(NCc3nc4ccccc4[nH]3)nc(N3CCCC3)nc12` [Example 47, N-[(1H-benzimidazol-2-yl)methyl]-8-bromo-2-(pyrrolidin-1-yl)pyrazolo[1,5-a][1,3,5]triazin-4-amine], for which the IC50 in test [1] came to 23.9 nM; at CDK12/CycK it was 7190 nM.
`CC(C)c1cnn2c(NCc3nnc(-c4ccccc4)[nH]3)nc(N3CCOCC3)nc12` [Example 33, 2-(morpholin-4-yl)-N-[(5-phenyl-4H-1,2,4-triazol-3-yl)methyl]-8-(propan-2-yl)pyrazolo[1,5-a][1,3,5]triazin-4-amine]: the IC50 in test [2] turned out to be 290 nM; at CDK12/CycK, 5230 nM.
Take `Brc1cnn2c(NCc3nc4ccccc4[nH]3)nc(N3CCCCC3)nc12` [Example 46, N-[(1H-benzimidazol-2-yl)methyl]-8-bromo-2-(piperidin-1-yl)pyrazolo[1,5-a][1,3,5]triazin-4-amine]: the IC50 in test [1] was found to be 238 nM; on CDK12/CycK it was 3330 nM.
The corresponding values for `Clc1ccc(-c2nnc(CNc3nc(N4CCOCC4)nc4c(Br)cnn34)[nH]2)cc1` [Example 45, 8-bromo-N-{[5-(4-chlorophenyl)-4H-1,2,4-triazol-3-yl]methyl}-2-(morpholin-4-yl)pyrazolo[1,5-a][1,3,5]triazin-4-amine] are 89.1 nM and 2200 nM.
The corresponding values for `N#Cc1cnn2c(NCc3nc4ccccc4[nH]3)nc(N3CCOCC3)nc12` [Example 43, 4-{[(1H-benzimidazol-2-yl)methyl]amino}-2-(morpholin-4-yl)pyrazolo[1,5-a][1,3,5]triazine-8-carbonitrile] are 131 nM and more than 16800 nM.
In the same order, the values of `COc1cccc(-c2nnc(CNc3nc(N4CCOCC4)nc4c(Br)cnn34)[nH]2)c1` [Example 50, 8-bromo-N-{[5-(3-methoxyphenyl)-4H-1,2,4-triazol-3-yl]methyl}-2-(morpholin-4-yl)pyrazolo[1,5-a][1,3,5]triazin-4-amine] are 29.5 nM and 2800 nM.
Consider `Brc1cnn2c(NCc3nnc(-c4ccccc4)[nH]3)nc(N3CCCCC3)nc12` [Example 49, 8-bromo-N-[(5-phenyl-4H-1,2,4-triazol-3-yl)methyl]-2-(piperidin-1-yl)pyrazolo[1,5-a][1,3,5]triazin-4-amine], for which the IC50 in test [1] stood at 44 nM; at CDK12/CycK it was 6120 nM.
For the compound `C[C@@H]1COCCN1c1nc(NCc2nc3ccccc3[nH]2)n2ncc(Br)c2n1` [Example 56, N-[(1H-benzimidazol-2-yl)methyl]-8-bromo-2-[(3R)-3-methylmorpholin-4-yl]pyrazolo[1,5-a][1,3,5]triazin-4-amine], the IC50 in test [1] stood at 17.3 nM; at CDK12/CycK, 5310 nM.
With `CCNc1nc(NCc2nnc(-c3ccccc3)[nH]2)n2ncc(C(C)C)c2n1` [Example 38, N^2-ethyl-N^4-[(5-phenyl-4H-1,2,4-triazol-3-yl)methyl]-8-(propan-2-yl)pyrazolo[1,5-a][1,3,5]triazine-2,4-diamine], the IC50 on CDK12/CycK is more than 5710 nM.
The same measure, in the same setting: for `CC(C)c1cnn2c(NCc3nnc(-c4ccccc4)[nH]3)nc(N3CCN(C)CC3)nc12` [Example 37, 2-(4-methylpiperazin-1-yl)-N-[(5-phenyl-4H-1,2,4-triazol-3-yl)methyl]-8-(propan-2-yl)pyrazolo[1,5-a][1,3,5]triazin-4-amine] the value was more than 20000 nM.
On to `FC(F)(F)c1cccc(-c2nnc(CNc3nc(N4CCOCC4)nc4c(Br)cnn34)[nH]2)c1` [Example 52, 8-bromo-2-(morpholin-4-yl)-N-({5-[3-(trifluoromethyl)phenyl]-4H-1,2,4-triazol-3-yl}methyl)pyrazolo[1,5-a][1,3,5]triazin-4-amine], for which the IC50 stood at 23.3 nM in test [1] and 1640 nM on CDK12/CycK.
Consider `Cc1cccc(-c2nnc(CNc3nc(N4CCOCC4)nc4c(Br)cnn34)[nH]2)c1` [Example 40, 8-bromo-N-{[5-(3-methylphenyl)-4H-1,2,4-triazol-3-yl]methyl}-2-(morpholin-4-yl)pyrazolo[1,5-a][1,3,5]triazin-4-amine], for which the IC50 turned out to be 23.1 nM in test [1] and 2440 nM on CDK12/CycK.
For the compound `CC(C)c1cnn2c(NCc3ncc(-c4ccccc4)[nH]3)nc(N(C)CC(C)(C)O)nc12` [Example 35, 2-methyl-1-{methyl[4-{[(5-phenyl-1H-imidazol-2-yl)methyl]amino}-8-(propan-2-yl)pyrazolo[1,5-a][1,3,5]triazin-2-yl]amino}propan-2-ol], the IC50 on CDK12/CycK was found to be 2210 nM.
Consider `OC[C@@H]1CCCCN1c1nc(NCc2nc3ccccc3[nH]2)n2ncc(Br)c2n1` [Example 59, [(2S)-1-(4-{[(1H-benzimidazol-2-yl)methyl]amino}-8-bromopyrazolo[1,5-a][1,3,5]triazin-2-yl)piperidin-2-yl]methanol], for which the IC50 came to 12.5 nM in test [1] and 547 nM at CDK12/CycK.
In the same order, the values of `C[C@H]1COCCN1c1nc(NCc2nc3ccccc3[nH]2)n2ncc(Br)c2n1` [Example 57, N-[(1H-benzimidazol-2-yl)methyl]-8-bromo-2-[(3S)-3-methylmorpholin-4-yl]pyrazolo[1,5-a][1,3,5]triazin-4-amine] are 3.14 nM and 1040 nM.
As to `CCNc1nc(NCc2ncc(-c3ccccc3)[nH]2)n2ncc(C(C)C)c2n1` [Example 34, N^2-ethyl-N^4-[(5-phenyl-1H-imidazol-2-yl)methyl]-8-(propan-2-yl)pyrazolo[1,5-a][1,3,5]triazine-2,4-diamine], the IC50 in test [2] was 48.6 nM; on CDK12/CycK it was more than 5710 nM.
With `Clc1cccc(-c2nnc(CNc3nc(N4CCOCC4)nc4c(Br)cnn34)[nH]2)c1` [Example 51, 8-bromo-N-{[5-(3-chlorophenyl)-4H-1,2,4-triazol-3-yl]methyl}-2-(morpholin-4-yl)pyrazolo[1,5-a][1,3,5]triazin-4-amine], the IC50 came to 9.43 nM in test [1] and 1730 nM at CDK12/CycK.
